{
  "source": "patent US20040167170A1",
  "about": "“Methods of preventing breast cancer” (priority 1996, published 2004)",
  "type_in_all_cases": "in vivo, human",
  "key": {"[1]": {"system": "breast cancer in postmenopausal women", "experiment": "Phase III double-blind placebo-controlled raloxifene trials, all placebo-controlled studies combined: incidence of breast cancer", "details": "for Relative Risk (Raloxifene to Placebo) of breast cancer / Raloxifene Cases n/N (%): all raloxifene doses pooled; for Raloxifene Cases n/N (%): N estimated", "description": "(§1) As support for the utility of the current invention, the interim safety results of Phase III clinical trials with raloxifene are presented, below.\n(§2) The majority of cases of breast carcinoma have occurred in the large, ongoing osteoporosis treatment study of 7704 postmenopausal women with established osteoporosis. However additional cases have been reported in smaller studies of postmenopausal women at risk for osteoporosis. The studies reported herein are double-blind and placebo-controlled; most have durations of approximately three years and were designed to determine the efficacy of raloxifene to prevent or treat osteoporosis in postmenopausal women. In addition, the studies provide information on the status of cardiovascular health and other major medical conditions (including the incidence of breast carcinoma). Patients were randomly assigned to receive either placebo, 30 mg, 60 mg, 120 mg or 150 mg of drug per day, orally. All patients and investigators are blinded to study drug assignment (double-blind design). All patients in all groups received daily calcium supplements of approximately 500 mg/day. In addition, patients in the large, 7704-patient treatment study received Vitamin D supplements, 400-600 IU/day.\n(§3) Subjects selected for these studies are postmenopausal women (at least 2 years from the time of the last menstrual period), ages range from approximately forty-five to eighty years.\n(§4) Typical exclusion criteria from participation in these studies included: l)the presence of serious systemic disease, 2)acute or chronic liver disease, 3)substantially impaired kidney function, 4)subjects who, in the opinion of the investigator, have poor medical or psychiatric risk factors for inclusion in a clinical trial, e.g., drug or alcohol abuse, etc. 5)subjects with any history of cancer within five years of entry into the study, with the exception of superficial lesions, e.g., basal cell carcinoma of the skin 6)the presence of abnormal uterine bleeding. Most important of the exclusion criteria was the exclusion of women with present or past personal history of breast cancer or other estrogen-dependent neoplasia. These exclusion criteria generate a population of subjects which reflects the general population in regard to the risk of developing breast carcinoma, or in other words, those persons at no particular increased risk of developing breast cancer.\n(§5) Potential subjects were screened prior to enrollment into the study. Subjects were required to reveal their medical histories and current medical conditions. All potential patients were required either to have a baseline mammogram or ultrasound evaluation of the breast, or to have had one of these procedures in the 12-month period preceding study entry. In most studies, a two-year follow-up mammogram is required; however, annual mammograms are recommended. All subjects with diagnosed and reported carcinomas of the breast were required to discontinue immediately from study participation, and were referred by the site investigator for appropriate oncologic evaluation and care.\nThe overall ratio of treatment assignments for randomized patients (raloxifene to placebo) is approximately 2:1.\n(§6) The results shown in Tables 1-4 are for subjects with histopathologic diagnoses of carcinoma of the breast. The data include results from optional one year mammograms, as well as the required baseline and two year follow-up mammograms. Once a diagnosis of breast cancer was made, these subjects were discontinued from the study and their status decoded to reveal the therapy (arm) to which they been assigned (i.e. what study drug they had received).\n(§7) For the studies reported in this invention, the number of patients randomly assigned to receive placebo is approximately 3195. The number of patients randomly assigned to receive raloxifene (all doses combined) is approximately 6681. […] Table 1 presents the results for all placebo-controlled studies, with data for all doses of raloxifene pooled. […]"}, "[2]": {"system": "breast cancer in postmenopausal women with established osteoporosis", "experiment": "Large (7704-patient) osteoporosis treatment study of postmenopausal women with established osteoporosis: incidence of breast cancer", "details": "for Relative Risk (Raloxifene to Placebo) of breast cancer / Raloxifene Cases n/N (%): 60 and 120 mg/day; for Raloxifene Cases n/N (%): N estimated", "description": "as §1, §2, §3, §4, §5, §6, §7"}, "[3]": {"system": "postmenopausal women", "experiment": "Integrated safety analysis of Phase III clinical trials of raloxifene for prevention or treatment of osteoporosis", "details": "all doses integrated; more than 12,850 patient-years of exposure; nearly 3 years of clinical experience", "description": "Because the goal of disease prevention is to protect women from the carcinogenic event (or the occurrence of precancerous lesions) and the subsequent promotion or progression to invasive disease (cancer), prolonged use of a preventive therapeutic agent is necessary (Kelloff et.al. Approaches to the Development and Marketing Approval of Drugs that Prevent Cancer, Cancer Epidemiology, Biomarkers & Prevention, vol 4, pp.1-10, 1995). […] Raloxifene has been studied in more than 12,000 subjects. Extensive integrated data from Phase III clinical trials of raloxifene for the prevention or treatment of osteoporosis in postmenopausal women, has been analyzed for safety. When all doses of raloxifene are integrated, this analysis has included more than 12,850 patient-years of exposure to raloxifene."}, "[4]": {"details": "1-Year Follow-up mammograms (6-18 months)"}, "[5]": {"details": "2-year Follow-up mammograms (18-30 months)"}, "[6]": {"details": "Baseline mammograms (1-6 months)"}, "[7]": {"details": "diagnosis at least 1 month after therapy assignment"}, "[8]": {"details": "diagnosis at least 12 months after therapy assignment"}, "[9]": {"details": "vs placebo, cases at least 12 months after randomization"}, "[10]": {"details": "vs placebo, diagnosed at least one month after random assignment"}},
  "data": [
    {"smiles": "O=C(c1ccc(OCCN2CCCCC2)cc1)c1c(-c2ccc(O)cc2)sc2cc(O)ccc12", "note": "[Raloxifene]", "values": [
      {"measurement": "Raloxifene Cases", "setting": "[1]; [4]", "result": 7},
      {"measurement": "Relative Risk of breast cancer", "setting": "[1]; [4]", "result": 0.56},
      {"measurement": "Raloxifene Cases", "setting": "[1]; [5]", "result": 5},
      {"measurement": "Relative Risk of breast cancer", "setting": "[1]; [5]", "result": 0.15},
      {"measurement": "Raloxifene Cases", "setting": "[1]; [6]", "result": 5},
      {"measurement": "Relative Risk of breast cancer", "setting": "[1]; [6]", "result": 1.20},
      {"measurement": "Relative Risk (Raloxifene to Placebo) of breast cancer", "setting": "[1]; [7]", "result": 0.36},
      {"measurement": "Raloxifene Cases n/N (%)", "setting": "[1]; [7]", "result": "18/6681"},
      {"measurement": "Relative Risk (Raloxifene to Placebo) of breast cancer", "setting": "[1]; [8]", "result": 0.23},
      {"measurement": "Raloxifene Cases n/N (%)", "setting": "[1]; [8]", "result": "10/6681"},
      {"measurement": "breast cancer cases reported in the raloxifene treatment groups", "setting": "[1]; placebo-controlled trials of at least 6 months duration, more than 1-month of treatment, raloxifene to placebo approximately 2:1", "result": 18, "unit": "cases"},
      {"measurement": "decrease in the incidence of breast cancer", "setting": "[1]; [9]", "result": 77, "unit": "%"},
      {"measurement": "decrease in the rate of breast cancer", "setting": "[1]; [10]", "result": 64, "unit": "%"},
      {"measurement": "Raloxifene Cases", "setting": "[2]; [4]", "result": 4},
      {"measurement": "Relative Risk of breast cancer", "setting": "[2]; [4]", "result": 0.33},
      {"measurement": "Raloxifene Cases", "setting": "[2]; [5]", "result": 3},
      {"measurement": "Relative Risk of breast cancer", "setting": "[2]; [5]", "result": 0.12},
      {"measurement": "Raloxifene Cases", "setting": "[2]; [6]", "result": 5},
      {"measurement": "Relative Risk of breast cancer", "setting": "[2]; [6]", "result": 1.25},
      {"measurement": "Relative Risk (Raloxifene to Placebo) of breast cancer", "setting": "[2]; [7]", "result": 0.29},
      {"measurement": "Raloxifene Cases n/N (%)", "setting": "[2]; [7]", "result": "12/5317"},
      {"measurement": "Relative Risk (Raloxifene to Placebo) of breast cancer", "setting": "[2]; [8]", "result": 0.14},
      {"measurement": "Raloxifene Cases n/N (%)", "setting": "[2]; [8]", "result": "5/5317"},
      {"measurement": "decrease in the incidence of breast carcinoma", "setting": "[2]; [9]", "result": 86, "unit": "%"},
      {"measurement": "decrease in the rate of breast cancer", "setting": "[2]; [10]", "result": 71, "unit": "%"},
      {"measurement": "tolerability / safety", "setting": "[3]", "result": "extremely well-tolerated"}
    ]}
  ]
}
